# Laboratory results reported in US9688628B1, “Drug repositioning: urease inhibitory activity of (2S)-1-[(2S)-2-methyl-3-sulfanylpropanoyl]pyrrolidine-2-carboxylic acid (captopril)” (priority 2016, dated 2017).
# Legend:
# [1] = target: T1, Jack bean urease (Canavalia ensiformis, UniProt P07374); test: mechanistic (kinetic) studies on urease; format: biochemical
# T1 construct: purchased Sigma-Aldrich (USA) Type IX
# Description: For mechanistic studies, urease enzyme solution (1 U/200 μL) was incubated with different concentrations of inhibitors for 15 min at 30° C. The reaction was initiated by adding different concentrations of substrate (0.5-4.0 mM), then phenol and alkali reagent were added and change in absorbance was measured for 50 minutes at 630 nm on microtitre plate reader (Spectra Max M5, Molecular Devices, CA, USA).
# The IC50 values were calculated by the EZ-Fit enzyme kinetics program (Perellela Scientific, Inc., Amherst, USA). Lineweaver-Burk plot, secondary plot, and Dixon plot were plotted by using Grafit 7 (Erithacus Software Limited, UK). Grafit 7 program was used to evaluate the correlation coefficients, slopes, and intercepts by linear regression analysis.
# [2] = target: T1, Jack bean urease; test: biochemical
# T1 sequence (P07374 whole entry, looked up): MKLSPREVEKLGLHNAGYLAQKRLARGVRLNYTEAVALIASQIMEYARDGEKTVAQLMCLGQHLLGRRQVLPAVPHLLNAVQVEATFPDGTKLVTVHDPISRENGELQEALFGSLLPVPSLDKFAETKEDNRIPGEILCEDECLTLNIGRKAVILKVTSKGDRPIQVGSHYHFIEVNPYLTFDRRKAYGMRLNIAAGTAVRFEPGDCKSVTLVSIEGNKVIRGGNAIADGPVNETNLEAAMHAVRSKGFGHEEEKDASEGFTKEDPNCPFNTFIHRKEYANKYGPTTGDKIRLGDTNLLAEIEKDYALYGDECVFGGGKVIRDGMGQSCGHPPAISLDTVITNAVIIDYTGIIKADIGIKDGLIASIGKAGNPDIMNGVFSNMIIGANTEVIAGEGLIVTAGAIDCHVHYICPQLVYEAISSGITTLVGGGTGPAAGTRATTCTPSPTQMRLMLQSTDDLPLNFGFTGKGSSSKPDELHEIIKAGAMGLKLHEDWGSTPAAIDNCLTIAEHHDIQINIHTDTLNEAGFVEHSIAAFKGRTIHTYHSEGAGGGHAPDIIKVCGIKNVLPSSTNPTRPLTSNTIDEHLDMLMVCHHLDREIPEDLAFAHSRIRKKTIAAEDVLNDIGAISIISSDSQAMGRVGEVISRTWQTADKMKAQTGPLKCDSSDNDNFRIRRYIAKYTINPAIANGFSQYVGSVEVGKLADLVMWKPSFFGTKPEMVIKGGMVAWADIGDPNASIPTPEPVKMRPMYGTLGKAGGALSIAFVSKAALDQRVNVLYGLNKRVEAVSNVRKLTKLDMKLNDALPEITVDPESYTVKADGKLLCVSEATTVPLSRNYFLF
smiles,measurement,setting,value
"C[C@H](CS)C(=O)N1CCC[C@H]1C(=O)O [Captopril, (2S)-1-[(2S)-2-methyl-3-sulfanylpropanoyl]pyrrolidine-2-carboxylic acid]",type of inhibition (Lineweaver-Burk plot),"[1]; FIG. 2A, apparent Km and Vmax changed",mixed-type inhibitor
same,type of inhibition (Dixon plot),"[1]; FIG. 2C, 1/Vmax vs [I]",non-competitive
same,IC50,[2],27 ± 1.97 µM
